The values that follow come from ChEMBL document CHEMBL3751688, “Synthesis, in vitro antimycobacterial evaluation and docking studies of some new 5,6,7,8-tetrahydropyrido[4',3':4,5]thieno[2,3-d]pyrimidin-4(3H)-one schiff bases” (Bioorg Med Chem Lett, 2016).

One assay has as its target T1, Pantothenate synthetase (Mycobacterium tuberculosis, UniProt P9WIL5).
T1 sequence (P9WIL5 whole entry): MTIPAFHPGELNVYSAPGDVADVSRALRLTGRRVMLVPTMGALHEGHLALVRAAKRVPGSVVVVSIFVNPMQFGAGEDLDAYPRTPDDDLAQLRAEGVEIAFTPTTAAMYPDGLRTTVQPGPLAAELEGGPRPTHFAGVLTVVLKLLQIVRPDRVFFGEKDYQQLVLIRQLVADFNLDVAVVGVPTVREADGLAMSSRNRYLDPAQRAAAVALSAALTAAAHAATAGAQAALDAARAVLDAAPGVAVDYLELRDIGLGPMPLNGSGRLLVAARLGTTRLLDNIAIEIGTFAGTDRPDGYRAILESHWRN
The assay can be described thus: Inhibition of Mycobacterium tuberculosis pantothenate synthetase.

The next assay concerns Klebsiella pneumoniae. As to the kind of experiment: Antibacterial activity against Klebsiella pneumoniae MTCC 109 after 24 hrs by broth microdilution technique. Type of assay: functional. The conditions noted are these: MTCC 109, 24 h. (In general: In broth dilution the organism is exposed to a series of concentrations in liquid medium.)
Another assay deals with Escherichia coli. The assay can be described thus: Antibacterial activity against Escherichia coli MTCC 443 after 24 hrs by broth microdilution technique. Type of assay: functional. The following applies: MTCC 443, 24 h.
A further assay deals with Staphylococcus aureus. The assay can be described thus: Antibacterial activity against Staphylococcus aureus MTCC 96 after 24 hrs by broth microdilution technique. The conditions noted are these: MTCC 96, 24 h. It counts as functional.
In a further assay the test system is Bacillus subtilis. The assay can be described thus: Antibacterial activity against Bacillus subtilis MTCC 441 after 24 hrs by broth microdilution technique. It counts as functional. The conditions noted are these: MTCC 441, 24 h.
In assay [1] the test system is Mycobacterium tuberculosis. As to the kind of experiment: Antimycobacterial activity against Mycobacterium tuberculosis H37Rv after 14 days by broth microdilution method. Type of assay: functional. The following applies: 336 h.
In assay [2] the test system is Mycobacterium tuberculosis. The assay can be described thus: Antimycobacterial activity against Mycobacterium tuberculosis H37Rv after 21 days by broth microdilution method. It counts as functional. The conditions noted are these: 504 h.
Assay [3] deals with Mycobacterium tuberculosis. As to the kind of experiment: Antimycobacterial activity against Mycobacterium tuberculosis H37Rv at 111 uM after 3 days by luciferase reporter phage assay. Type of assay: functional. The following applies: 72 h. Background: A reporter such as luciferase makes a cellular process visible.
For assay [4], the system named is Mycobacterium tuberculosis. The assay can be described thus: Antimycobacterial activity against Mycobacterium tuberculosis H37Rv at 223 uM after 3 days by luciferase reporter phage assay. The following applies: 72 h. Type of assay: functional.
In assay [5] the test system is Mycobacterium tuberculosis. As to the kind of experiment: Antimycobacterial activity against Mycobacterium tuberculosis H37Rv at 446 uM after 3 days by luciferase reporter phage assay. The conditions noted are these: 72 h. Type of assay: functional.
Assay [6] deals with Mycobacterium tuberculosis. The assay can be described thus: Antibacterial activity against Mycobacterium tuberculosis. Type of assay: functional.
For assay [7], the system named is Mycobacterium tuberculosis. As to the kind of experiment: Antimycobacterial activity against Mycobacterium tuberculosis H37Rv at 246 uM after 3 days by luciferase reporter phage assay. Type of assay: functional. The conditions noted are these: 72 h.
In assay [8] the test system is Mycobacterium tuberculosis. The assay can be described thus: Antimycobacterial activity against Mycobacterium tuberculosis H37Rv at 492 uM after 3 days by luciferase reporter phage assay. It counts as functional. The following applies: 72 h.
For assay [9], the system named is Mycobacterium tuberculosis. As to the kind of experiment: Antimycobacterial activity against Mycobacterium tuberculosis H37Rv at 123 uM after 3 days by luciferase reporter phage assay. Type of assay: functional. The following applies: 72 h.

Broadly, the IC50 is the point on the concentration scale where inhibition reaches its midpoint. As a reminder, the MIC is the lowest concentration found to suppress growth. Low readings indicate a more susceptible organism, high ones a less susceptible organism. A word on the inhibition: it is the change of the read-out against control, counted positive when it falls. Read a high inhibition as a strong effect.

The structures appear in SMILES notation. Values after ≈ are worked out from the molar mass of the structure shown.

Take `NC(=O)c1c(NC(=O)c2ccc([N+](=O)[O-])s2)sc2c1CCN(Cc1ccccc1)C2`: the IC50 on Pantothenate synthetase is 1.13 µM.

As for `COc1cc(/C=N/n2cnc3sc4c(c3c2=O)CCN(Cc2ccccc2)C4)cc(OC)c1OC`, the MIC against Klebsiella pneumoniae, with Escherichia coli, in the assay on Staphylococcus aureus and in the assay with Bacillus subtilis was 255 µM (≈ 125 µg/mL) in each case.

Turning to `NNC(=O)c1ccncc1` [ISONIAZID], the MIC in [1] and in [2] was 0.28 µM (≈ 0.0384 µg/mL) in each case.

On to `Cc1nc2sc3c(c2c(=O)n1/N=C/c1ccccc1[N+](=O)[O-])CCN(Cc1ccccc1)C3`, for which the MIC against Klebsiella pneumoniae, in the assay with Escherichia coli, in the assay with Staphylococcus aureus and against Bacillus subtilis was 135 µM (≈ 62 µg/mL) throughout.

In the case of `CO[C@H]1/C=C/O[C@@]2(C)Oc3c(C)c(O)c4c(O)c(c(/C=N/N5CCN(C)CC5)c(O)c4c3C2=O)NC(=O)/C(C)=C\C=C\[C@H](C)[C@H](O)[C@@H](C)[C@@H](O)[C@@H](C)[C@H](OC(C)=O)[C@@H]1C` [RIFAMPIN], the MIC in [1] and in assay [2] was 0.09 µM (≈ 0.0741 µg/mL) each time.

In assay [3], `Cc1nc2sc3c(c2c(=O)n1/N=C/c1ccc(Cl)cc1)CCN(Cc1ccccc1)C3` displayed an inhibition at 111 µM of 29.6%. Besides, at 223 µM the inhibition in [4] was 40.8%. Also, the MIC in the assay with Klebsiella pneumoniae amounted to 69 µM (≈ 31 µg/mL); in assay [1], 8 µM (≈ 3.59 µg/mL); in [2], 8 µM (≈ 3.59 µg/mL); against Escherichia coli it was 15 µM (≈ 6.73 µg/mL); with Staphylococcus aureus, 33 µM (≈ 14.8 µg/mL); in the assay on Bacillus subtilis, 33 µM (≈ 14.8 µg/mL). In assay [5], 446 µM produced 99.8% inhibition.

The molecule `Cc1nc2ccccn2c1C(=O)N/N=C/c1ccc(C(F)(F)F)cc1` showed an MIC in assay [6] of 9.01 µM (≈ 3.12 µg/mL).

Take `CC[C@@H](CO)NCCN[C@@H](CC)CO` [ETHAMBUTOL]: the MIC in assay [1] and in [2] was 4 µM (≈ 0.817 µg/mL) throughout.

For the molecule `COc1cc(/C=N/n2c(C)nc3sc4c(c3c2=O)CCN(Cc2ccccc2)C4)cc(OC)c1OC`, the MIC with Klebsiella pneumoniae, in the assay with Escherichia coli, with Staphylococcus aureus and against Bacillus subtilis was 248 µM (≈ 125 µg/mL) in each case.

As for `Cc1nc2sc3c(c2c(=O)n1/N=C/c1ccc(F)cc1)CCN(Cc1ccccc1)C3`, the MIC with Klebsiella pneumoniae, with Escherichia coli, with Staphylococcus aureus and in the assay on Bacillus subtilis was 71 µM (≈ 30.7 µg/mL) throughout.

Molecule `O=c1c2c3c(sc2ncn1/N=C/c1cccs1)CN(Cc1ccccc1)CC3` showed an inhibition at 246 µM in assay [7] of 0%. Besides, the MIC in the assay on Klebsiella pneumoniae came out at 150 µM (≈ 61 µg/mL); in assay [1], 22 µM (≈ 8.94 µg/mL); in assay [2], 22 µM (≈ 8.94 µg/mL); with Escherichia coli, 150 µM (≈ 61 µg/mL); in the assay on Staphylococcus aureus, 36 µM (≈ 14.6 µg/mL); against Bacillus subtilis, 150 µM (≈ 61 µg/mL). This molecule had an inhibition at 492 µM in assay [8] of 0%. In addition, testing at 123 µM in [9] gave an inhibition of 0%.

Turning to `Cc1nc2sc3c(c2c(=O)n1/N=C/c1ccco1)CCN(Cc1ccccc1)C3`, the minimal inhibitory concentration (MIC) stood at 153 µM (≈ 61.9 µg/mL) with Klebsiella pneumoniae, 309 µM (≈ 125 µg/mL) in the assay with Escherichia coli, 309 µM (≈ 125 µg/mL) in the assay on Staphylococcus aureus and 309 µM (≈ 125 µg/mL) in the assay on Bacillus subtilis.

For the molecule `Cc1nc2sc3c(c2c(=O)n1/N=C/c1cccs1)CCN(Cc1ccccc1)C3`, the MIC in the assay with Klebsiella pneumoniae, with Escherichia coli, against Staphylococcus aureus and against Bacillus subtilis was 297 µM (≈ 125 µg/mL) each time.

As for `O=c1c2c3c(sc2ncn1/N=C/c1ccc(Cl)cc1Cl)CN(Cc1ccccc1)CC3`, the MIC worked out at 66 µM (≈ 31 µg/mL) with Klebsiella pneumoniae, 66 µM (≈ 31 µg/mL) in the assay with Escherichia coli, 66 µM (≈ 31 µg/mL) against Staphylococcus aureus and 32 µM (≈ 15 µg/mL) with Bacillus subtilis.
